# Measurements taken from ChEMBL document CHEMBL4033647, “Novel coumarin- and quinolinone-based polycycles as cell division cycle 25-A and -C phosphatases inhibitors induce proliferation arrest and apoptosis in cancer cells” (Eur J Med Chem, 2017).
# What was measured:
# PC-3 = experiment: Cytotoxicity against human PC3 cells assessed as reduction in cell viability after 72 hrs by MTT assay; format: functional, cell-based; settings: PC-3, 72 h
# [1] = Cytotoxicity against human U373n cells assessed as reduction in cell viability after 72 hrs by MTT assay; format: functional, cell-based
# MCF7 = experiment: Cytotoxicity against human MCF7 cells assessed as reduction in cell viability after 72 hrs by MTT assay; format: functional, cell-based; settings: MCF7, 72 h
# A549 = experiment: Cytotoxicity against human A549 cells assessed as reduction in cell viability after 72 hrs by MTT assay; format: functional, cell-based; settings: A549, 72 h
# SK-MEL-28 = experiment: Cytotoxicity against human SK-MEL-28 cells assessed as reduction in cell viability after 72 hrs by MTT assay; format: functional, cell-based; settings: SK-MEL-28, 72 h
# Hs 683 = experiment: Cytotoxicity against human Hs683 cells assessed as reduction in cell viability after 72 hrs by MTT assay; format: functional, cell-based; settings: Hs 683, 72 h
# [2] = biological target: T1, M-phase inducer phosphatase 3 (Homo sapiens, UniProt P30307); experiment: Inhibition of recombinant human full length GST-tagged CDC25C expressed in Escherichia coli BL21-DE3 pLysS using 3-O-methylfluorescein phosphate as substrate after 2 hrs by fluorimetric analysis
# T1 sequence (P30307 whole entry): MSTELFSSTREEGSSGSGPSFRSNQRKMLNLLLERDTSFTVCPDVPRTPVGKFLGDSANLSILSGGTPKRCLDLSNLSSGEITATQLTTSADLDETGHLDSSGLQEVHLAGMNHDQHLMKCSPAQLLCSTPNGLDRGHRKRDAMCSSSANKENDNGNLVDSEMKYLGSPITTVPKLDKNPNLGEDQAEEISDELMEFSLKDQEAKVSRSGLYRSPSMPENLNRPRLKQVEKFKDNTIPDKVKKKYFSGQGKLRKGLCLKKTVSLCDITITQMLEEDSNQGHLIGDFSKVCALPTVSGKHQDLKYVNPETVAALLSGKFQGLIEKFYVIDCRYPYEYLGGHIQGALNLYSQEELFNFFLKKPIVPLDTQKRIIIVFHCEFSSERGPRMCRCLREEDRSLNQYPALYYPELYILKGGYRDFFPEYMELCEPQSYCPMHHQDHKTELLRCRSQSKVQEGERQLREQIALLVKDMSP
# [3] = biological target: T2, M-phase inducer phosphatase 1 (Homo sapiens, UniProt P30304); experiment: Inhibition of recombinant human full length GST-tagged CDC25A expressed in Escherichia coli BL21-DE3 pLysS using 3-O-methylfluorescein phosphate as substrate after 2 hrs by fluorimetric analysis
# T2 sequence (P30304 whole entry): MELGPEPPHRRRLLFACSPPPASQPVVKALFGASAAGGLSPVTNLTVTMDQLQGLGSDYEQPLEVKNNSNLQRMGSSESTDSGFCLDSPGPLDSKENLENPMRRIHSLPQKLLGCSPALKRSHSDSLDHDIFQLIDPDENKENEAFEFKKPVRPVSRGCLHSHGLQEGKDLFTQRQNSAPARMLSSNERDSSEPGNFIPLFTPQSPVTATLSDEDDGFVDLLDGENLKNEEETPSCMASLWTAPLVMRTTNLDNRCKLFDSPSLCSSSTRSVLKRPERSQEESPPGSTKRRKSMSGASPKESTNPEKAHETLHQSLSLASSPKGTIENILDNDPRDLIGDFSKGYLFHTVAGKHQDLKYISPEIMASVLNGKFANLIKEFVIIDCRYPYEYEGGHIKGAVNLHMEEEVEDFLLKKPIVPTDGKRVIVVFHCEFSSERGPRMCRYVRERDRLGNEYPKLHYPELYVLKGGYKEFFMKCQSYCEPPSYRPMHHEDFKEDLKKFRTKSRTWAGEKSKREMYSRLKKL
# Homo sapiens = organism: Homo sapiens; experiment: Selectivity ratio of IC50 for recombinant human full length GST-tagged CDC25A expressed in Escherichia coli BL21-DE3 pLysS to IC50 for recombinant human full length GST-tagged CDC25C expressed in Escherichia coli BL21-DE3 pLysS
compound,measurement,setting,value
O=C1C(SCCO)=C(SCCO)C(=O)c2ccccc21,IC50,PC-3,3.4 µM
same,IC50,[1],1.85 µM
same,IC50,MCF7,0.96 µM
same,IC50,A549,1.45 µM
same,IC50,SK-MEL-28,2.3 µM
same,IC50,Hs 683,2.8 µM
Cn1c(=O)c2c3c(ccc2c2ccccc21)C(=O)C=CC3=O,IC50,[2],14.9 µM
same,IC50,PC-3,32 µM
same,IC50,[1],41 µM
same,IC50,MCF7,34 µM
same,IC50,A549,68 µM
same,IC50,[3],13 µM
same,IC50,SK-MEL-28,68 µM
same,IC50,Hs 683,67 µM
CCN(CC)c1ccc2c(c1)oc(=O)c1c3c(ccc12)C(=O)C=CC3=O,IC50,[2],0.3 µM
same,IC50,PC-3,45 µM
same,IC50,[1],59 µM
same,IC50,MCF7,58 µM
same,IC50,A549,98 µM
same,IC50,[3],1.2 µM
same,IC50,SK-MEL-28,72 µM
same,IC50,Hs 683,98 µM
O=C1C=CC(=O)c2c1ccc1c2c(=O)[nH]c2cc(F)ccc21,IC50,[2],4.46 µM
same,IC50,PC-3,4 µM
same,IC50,[1],3 µM
same,IC50,MCF7,27 µM
same,IC50,A549,18 µM
same,IC50,[3],2.85 µM
same,IC50,SK-MEL-28,8 µM
same,IC50,Hs 683,9 µM
Cc1ccc2c(c1)oc(=O)c1c3c(ccc12)C(=O)C=CC3=O,IC50,[2],1 µM
same,IC50,PC-3,> 100 µM
same,IC50,[1],98 µM
same,IC50,MCF7,82 µM
same,IC50,A549,> 100 µM
same,IC50,[3],2.9 µM
same,IC50,SK-MEL-28,> 100 µM
same,IC50,Hs 683,> 100 µM
COc1ccc2c(c1)oc(=O)c1c3c(ccc12)C(=O)C=CC3=O,IC50,[2],0.98 µM
same,IC50,PC-3,31 µM
same,IC50,[1],16 µM
same,IC50,MCF7,9 µM
same,IC50,A549,30 µM
same,IC50,[3],2.88 µM
same,IC50,SK-MEL-28,31 µM
same,IC50,Hs 683,24 µM
O=C1C=CC(=O)c2c1ccc1c2c(=O)oc2ccc(Cl)cc21,IC50,[2],1.44 µM
same,IC50,PC-3,19 µM
same,IC50,[1],12 µM
same,IC50,MCF7,13 µM
same,IC50,A549,25 µM
same,IC50,[3],2.57 µM
same,IC50,SK-MEL-28,33 µM
same,IC50,Hs 683,6 µM
O=C1C=CC(=O)c2c1ccc1c2c(=O)oc2cc(OCc3ccccc3)ccc21,IC50,[2],7.12 µM
same,IC50,PC-3,> 100 µM
same,IC50,[1],> 100 µM
same,IC50,MCF7,> 100 µM
same,IC50,A549,> 100 µM
same,IC50,[3],3.11 µM
same,IC50,SK-MEL-28,> 100 µM
same,IC50,Hs 683,> 100 µM
O=C1C=CC(=O)c2c1ccc1c2c(=O)oc2ccc(F)cc21,IC50,[2],0.4 µM
same,Ratio IC50,Homo sapiens,8.75
same,IC50,PC-3,43 µM
same,IC50,[1],36 µM
same,IC50,MCF7,3 µM
same,IC50,A549,17 µM
same,IC50,[3],3.5 µM
same,IC50,SK-MEL-28,40 µM
same,IC50,Hs 683,19 µM
O=C1C=CC(=O)c2c1ccc1c2c(=O)[nH]c2c3ccccc3ccc12,IC50,[2],4.37 µM
same,IC50,PC-3,42 µM
same,IC50,[1],42 µM
same,IC50,MCF7,30 µM
same,IC50,A549,45 µM
same,IC50,[3],3.23 µM
same,IC50,SK-MEL-28,72 µM
same,IC50,Hs 683,30 µM
O=C1C=CC(=O)c2c1ccc1c2c(=O)oc2cc(F)ccc21,IC50,[2],0.69 µM
same,IC50,PC-3,36 µM
same,IC50,[1],7 µM
same,IC50,MCF7,11 µM
same,IC50,A549,1 µM
same,IC50,[3],2.19 µM
same,IC50,SK-MEL-28,18 µM
same,IC50,Hs 683,4 µM
O=C1C=CC(=O)c2c1ccc1c2c(=O)oc2cc(O)ccc21,IC50,[2],0.8 µM
same,IC50,PC-3,27 µM
same,IC50,[1],9 µM
same,IC50,MCF7,9 µM
same,IC50,A549,19 µM
same,IC50,[3],6.6 µM
same,IC50,SK-MEL-28,29 µM
same,IC50,Hs 683,11 µM
O=C1C=CC(=O)c2c1ccc1c2c(=O)[nH]c2ccc(F)cc21,IC50,[2],4.67 µM
same,IC50,PC-3,3 µM
same,IC50,[1],2 µM
same,IC50,MCF7,4 µM
same,IC50,A549,4 µM
same,IC50,[3],3.37 µM
same,IC50,SK-MEL-28,3 µM
same,IC50,Hs 683,3 µM
O=C1C=CC(=O)c2c1ccc1c2c(=O)oc2c3ccccc3ccc12,IC50,[2],0.1 µM
same,Ratio IC50,Homo sapiens,15
same,IC50,PC-3,75 µM
same,IC50,[1],55 µM
same,IC50,MCF7,7 µM
same,IC50,A549,70 µM
same,IC50,[3],1.5 µM
same,IC50,SK-MEL-28,> 100 µM
same,IC50,Hs 683,4 µM
O=C1C=CC(=O)c2c1ccc1c2c(=O)[nH]c2cc(Cl)ccc21,IC50,[2],5.5 µM
same,IC50,PC-3,4 µM
same,IC50,[1],1 µM
same,IC50,MCF7,2 µM
same,IC50,A549,0.13 µM
same,IC50,[3],4.04 µM
same,IC50,SK-MEL-28,5 µM
same,IC50,Hs 683,1 µM
